One test relates to U266. Nature of the test: ADCC of afucosylated J6M0, U266. It is filed as cell-based, human. As to conditions: PBMC E:T 50:1, 18 hours, one value per assay/donor (A-K). How it is done: (§1) FIG. 18: ADCC dose response curves of CA8 J6M0 Potelligent against a panel of 5 multiple myeloma lines—Human PBMC were incubated with multiple myeloma target cells in the presence of varying concentrations of CA8 J6M0 potelligent antibody at an E:T ratio of 50:1 for 18 hours. The percentage of target cells remaining in the effector plus target mixture was then measured by FACS using a fluorescently labelled anti-CD138 antibody to detect the target cells and the percent cytotoxicity calculated. Example dose response curves for CA8 J6M0 potelligent against the five multiple myeloma cell lines tested—[…], RPMI8226, JJN-3, OPM-2, and U266. Each data point is from a singlicate value.
(§2) Human PBMC were incubated with multiple myeloma target cells at an E:T ratio of 50:1 in presence of varying concentrations of afucosylated (Potelligent) J6M0 The percentage of target cells remaining in the effector+target cell mixture after 18 hours was measured by FACS using a fluorescently labelled anti-CD138 antibody to detect the target cells and the percent lysis calculated. This is representative of several experiments.

Test [1] concerns five multiple myeloma target cell lines. Nature of the test: ADCC of afucosylated J6M0 on MM cell lines (panel). As to conditions: human PBMC, E:T ratio 50:1, 18 hours. It is filed as cell-based. How it is done:
as §1, §2

In a further test the test system is OPM-2. As to the kind of experiment: ADCC of afucosylated J6M0, OPM-2. Type of test: cell-based, human. The following applies: OPM-2, ADCC, PBMC E:T 50:1, 18 hours; one value per assay/donor (A-K). How it is done: as §1, §2
In test [2] the test system is Europium labelled ARH77-10B5 cells. As to the kind of experiment: ADCC potency of conjugated, afucosylated J6M0. The following applies: PBMC: target cell ratio 50:1, up to 10000 ng/ml, 2 hours. It is filed as cell-based, human. As for the experimental part: FIG. 17: ADCC activity of ADC J6M0 molecules—Figure showing ADCC assay on J6M0 antibodies using ARH77 BCMA expressing target cells. Human PBMC were incubated with europium labelled ARH77 BCMA transfected target cells in the presence of a range of concentrations of J6M0 WT and potelligent BCMA antibodies conjugated to MMAE, MMAF, or unconjugated Europium release was monitored on the Victor 2 1420 multilabel reader.
Afucosylated J6M0 conjugated to MMAE or MMAF was tested in ADCC assays using BCMA transfectants to ensure that its ADCC activity was not compromised by the conjugation. Europium labelled ARH77-10B5 cells were incubated with various J6M0 WT and Potelligent BCMA antibodies at concentrations up to 10000 ng/ml for 30 minutes prior to the addition of PBMCs (PBMC: target cell ratio 50:1). Two hours later an aliquot of cell media was sampled and mixed with enhancement solution. After 30 minutes on a plate shaker, europium release was monitored on the Victor 2 1420 multi-label reader. Datapoints represent means of triplicate values.

The term EC50 denotes the concentration that produces a half-maximal response. Low readings indicate higher potency in that assay, high ones lower potency in that assay.

On to “J6M0 Potelligent: humanised CA8 version J6M0 in afucosylated (Potelligent) form”, for which the half-maximal effective concentration (EC50) in the test on U266 was determined as 9.04 ng/mL; with OPM-2 it was 4.15 ng/mL. The ADCC activity entry in test [1] is “showed ADCC activity against all five multiple myeloma target cell lines tested”. The “ADCC potency (europium release)” value in test [2] is “lower EC50 and higher maximal lysis”.

Values taken from US11419945B2, “Antigen binding proteins” (Glaxo Group Limited, priority 2011, dated 2022).
